Data reported in patent publication US11167007B2, “FOXM1 modulators and uses thereof” (City of Hope, priority 2016, dated 2021).
“Also recorded” adds a separate entry of the source.

Tests used:
[1] = molecular target: T1, AR (Homo sapiens, UniProt P10275); experiment: FRET-based AR conformation change reporter (CFP-AR-YFP, CARY) in GT1-7 cells; format: cell-based, mouse; design: Full length AR with cyan fluorescent protein (CFP) or yellow fluorescent protein (YFP) fused to either end (CARY); expressed in transfected cells
T1 sequence (P10275 1-920): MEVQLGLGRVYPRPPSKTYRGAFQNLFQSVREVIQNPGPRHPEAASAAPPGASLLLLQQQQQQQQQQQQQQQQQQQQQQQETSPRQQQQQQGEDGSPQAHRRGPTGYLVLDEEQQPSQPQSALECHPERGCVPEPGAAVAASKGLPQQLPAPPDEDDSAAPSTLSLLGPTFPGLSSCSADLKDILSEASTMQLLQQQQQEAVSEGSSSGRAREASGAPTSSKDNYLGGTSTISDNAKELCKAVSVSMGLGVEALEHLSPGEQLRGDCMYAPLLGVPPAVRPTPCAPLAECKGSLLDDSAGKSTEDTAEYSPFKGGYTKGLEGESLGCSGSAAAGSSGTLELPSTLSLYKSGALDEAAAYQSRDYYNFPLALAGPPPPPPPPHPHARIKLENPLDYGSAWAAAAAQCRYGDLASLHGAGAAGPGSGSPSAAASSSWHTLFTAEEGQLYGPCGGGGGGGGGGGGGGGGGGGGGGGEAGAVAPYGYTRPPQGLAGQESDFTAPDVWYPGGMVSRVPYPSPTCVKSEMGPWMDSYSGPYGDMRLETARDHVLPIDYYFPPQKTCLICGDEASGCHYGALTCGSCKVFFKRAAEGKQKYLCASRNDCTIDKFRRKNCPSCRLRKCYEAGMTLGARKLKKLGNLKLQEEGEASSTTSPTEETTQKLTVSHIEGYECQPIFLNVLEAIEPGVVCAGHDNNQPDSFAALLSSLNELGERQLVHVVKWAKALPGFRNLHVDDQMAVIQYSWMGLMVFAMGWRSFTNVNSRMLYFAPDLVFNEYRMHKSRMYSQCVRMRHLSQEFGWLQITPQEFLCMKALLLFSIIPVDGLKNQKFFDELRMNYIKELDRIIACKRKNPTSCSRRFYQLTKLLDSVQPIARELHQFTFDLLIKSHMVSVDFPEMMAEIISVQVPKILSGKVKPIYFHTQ
Protocol: Creation of stable C-AR-Y reporter cell lines. Cell lines listed above were either transfected with a plasmid or a virus containing the CFP-AR-YFP construct preceding an IRES and hygromycin resistance gene and clonal stable cell lines selected. Qualification criteria for the transfected cell lines were described by Jones et al, ACS Chem Biol, 3(7):412-8 (2008).
Screen for AR-modulators. Screening was performed essentially as described by Jones et al, ACS Chem Biol, 3(7):412-8 (2008). Briefly, C-AR-Y reporter GTI-7 were transferred to 96 well plates and treated with library compounds for 24 hours. […] The compounds to be tested were from the NCI/DTP Open Chemical Repository's Approved Oncology Drugs Set II, Diversity Set II and Mechanistic Set. […] After 24 hours, medium was aspirated and FRET was measured as previously described using a monochromator-based fluorescence plate reader (M1000, Tecan, Inc.). Jones et al, ACS Chem Biol, 3(7):412-8 (2008). […]
In order to identify potential cell-type selective AR modulators, the FRET-based assay of AR conformation change was utilized. […] This produces an accurate and quantifiable read-out of AR activity. […] Candidate hits were then further evaluated by dose response. […] In addition to FRET, AR transcriptional activity was also assessed in several cell lines by transfecting cells with a luciferase reporter driven by the human PSA promoter. […]

[2] = test system: FOXM1; experiment: Western blot of FOXM1 levels in GT1-7 CARY cells; format: cell-based, murine; conditions: relative to p84 loading control, FIG. 3C
Description: Western Blot. Cell lysates was separated on a 6% SDS page gel and transferred to a nitrocellulose membrane. The membrane was blocked for one hour in 5% skim milk dissolved in TBS-T and probed with the following antibodies ([…]): FoxM1 (rabbit, GeneTex), AR: 441 (mouse, Santa Cruz Biotechnology), β-catenin (rabbit 9562, Cell Signaling Technology), p84 (mouse, GeneTex) and actin (mouse, Santa Cruz Biotechnology). Horse radish peroxidase linked secondary antibodies were used along with ECL reagents for visualization. Western blots were quantified using Quantity One analysis software (BioRad).
It has been previously reported that thiostrepton causes decreased levels of FOXM1. Hegde et al, Nat Chem, 3(9):725-31 (2011); Gartel, Front Oncol, 3:150 (2013). […] The nuclear association between FOXM1 and β-catenin increases the transcriptional activity of both factors. Zhang et al, Cancer Cell, 20(4):427-42 (2011). β-catenin is a key AR coactivator in a variety of cells. Yang, J Biol Chem, 277(13):11336-44 (2002); Truica et al, Cancer Res, 60(17):4709-13 (2000). The inventors believed that thiostrepton could inhibit AR activity by limiting access to nuclear β-catenin via FOXM1 depletion. […] As expected, control actin protein was observed primarily in cytoplasmic fraction.

[3] = test system: AR-FOXM1 co-localization; format: cell-based, murine; conditions: GT1-7 CARY cells, 24 hours, FIG. 4B
Protocol: Cells were fixed in 2% paraformaldehyde prior to incubating with primary antibody (FOXM1: mouse, AbCam) overnight at 4° C. Following washing, secondary antibody (Alexa 954 goat anti-mouse, Invitrogen) was applied for 45 minutes at 37° C. After washing, slides were mounted and analyzed using a confocal microscope (Zeiss). The coloc-2 Image J plug-in (Fiji) was used to quantify co-localization of AR and FOXM1 from three independent samples using both Li's Intensity Correlation Quotient (ICQ) and Manders split coefficients co-localization values. One-way analysis of variance was applied to determine statistical significant among groups, where p<0.05 was considered significant.

Compound | inhibition of DHT-induced AR conformation change ([1]; dose response, GT1-7 cells, FIG. 1B) | AR inhibitor (antagonist) activity in words ([1]; neuronal GT1-7 cells, FRET or luciferase) | FOXM1 levels (Western blot) [2] | association (co-localization) between FOXM1 and AR [3]
C=C(NC(=O)C(=C)NC(=O)c1csc(C2=N[C@@H]3c4csc(n4)[C@H]4NC(=O)c5csc(n5)[C@H]([C@](C)(O)[C@@H](C)O)NC(=O)[C@H]5CSC(=N5)/C(=C/C)NC(=O)[C@H]([C@@H](C)O)NC(=O)c5csc(n5)[C@]3(CC2)NC(=O)[C@H](C)NC(=O)C(=C)NC(=O)C(=C)NC(=O)[C@H](C(C)C)N[C@@H]2C=Cc3c([C@H](C)O)cc(nc3[C@H]2O)C(=O)O[C@@H]4C)n1)C(N)=O [NSC285116, siomycin A] | dose dependent inhibition | greatest potency; also recorded: demonstrated antagonist activity |  | 
C=C(NC(=O)C(=C)NC(=O)c1csc(C2=N[C@@H]3c4csc(n4)[C@H]4NC(=O)c5csc(n5)[C@H]([C@](C)(O)[C@@H](C)O)NC(=O)[C@H]5CSC(=N5)/C(=C/C)NC(=O)[C@H]([C@@H](C)O)NC(=O)c5csc(n5)[C@]3(CC2)NC(=O)[C@H](C)NC(=O)C(=C)NC(=O)[C@H](C)NC(=O)[C@H]([C@@H](C)CC)N[C@@H]2C=Cc3c([C@H](C)O)cc(nc3[C@H]2O)C(=O)O[C@@H]4C)n1)C(N)=O [thiostrepton] |  |  | slightly decreased | not significantly affected
